Experimental data taken from US20240217957A1, “HETEROCYCLIC COMPOUND AND USE THEREOF” (TAKEDA PHARMACEUTICAL COMPANY LIMITED, priority 2022, published 2024).

What follows are compounds tested against T1, human OX2 receptor (Homo sapiens, UniProt O43614) (assay: Measurement of orexin type 2 receptor agonist activity (calcium fluorescence, Fluo-4 AM, FDSS)). Conditions: compound at 3 μM; CHO cells forcibly expressing human OX2 receptor; DMSO = 0%, 10 nM orexin A (human) = 100%.
T1 construct: expressed in transfected cells
T1 sequence (O43614 1-444): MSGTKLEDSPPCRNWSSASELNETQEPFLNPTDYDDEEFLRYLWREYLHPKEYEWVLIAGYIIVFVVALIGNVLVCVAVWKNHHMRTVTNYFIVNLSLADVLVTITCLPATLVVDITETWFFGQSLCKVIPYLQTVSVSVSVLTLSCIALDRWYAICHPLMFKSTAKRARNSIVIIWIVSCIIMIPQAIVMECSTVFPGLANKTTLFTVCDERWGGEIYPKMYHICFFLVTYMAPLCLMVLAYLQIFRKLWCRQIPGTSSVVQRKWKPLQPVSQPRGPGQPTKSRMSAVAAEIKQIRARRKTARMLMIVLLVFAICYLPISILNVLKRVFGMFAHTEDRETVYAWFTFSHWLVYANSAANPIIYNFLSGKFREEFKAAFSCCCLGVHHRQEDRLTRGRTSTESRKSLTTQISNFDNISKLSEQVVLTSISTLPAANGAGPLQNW
Format: cell-based
Description: In order to obtain cell clones that stably express human orexin type 2 receptor, human orexin type 2 (residues 1-444, NCBI Reference Sequence: AK314279) was constructed in a pcDNA3.1 (+) vector (Invitrogen) to express in mammalian cells. This plasmid DNA was transfected into CHO-K1 cells by electroporation, and stable clones were obtained by limiting dilution using resistance to G418 as a selection marker.
CHO cells in which human OX2 receptor was forcibly expressed were seeded at 10,000 cells/well into a 384-well black transparent bottom plate (BD falcon), and were incubated at 37° C., 5% CO2 for 1 day after incubation at room temperature for 30 minutes. After removing the cell plate medium, assay buffer containing calcium indicator A (HBSS (Thermo Fisher Scientific), 20 mM HEPES (Thermo Fisher Scientific), 0.1% BSA (Sigma-Aldrich), 2.5 μg/mL Fluo-4 AM (Dojin Kagaku), 0.08% Pluronic F127 (Dojin Kagaku), 1.25 mM probenecid (Dojin Kagaku)) was added at 30 μL/well. After incubation in a 5% CO2 incubator at 37° C. for 30 minutes, it was incubated at room temperature for another 30 minutes. Add 10 μL/well of the test compound diluted with assay buffer B (HBSS, 20 mM HEPES, 0.1% BSA), and use FDSS uCELL (Hamamatsu Photonics) to measure the fluorescence value every 1 second for 1 minute, and then every 2 seconds for […]. It was measured for 1 minute and 40 seconds. The amount of fluorescence value when DMSO is added instead of the test compound is defined as 0%, and the amount of fluorescence value when orexin A (human) (Peptide Institute) with a final concentration of 10 nM is added is defined as 100%. The activity (%) of the test compound was calculated.
In the case of `C[C@]1(F)CN(C2=NOC(c3c(F)cccc3-c3c(F)cccc3F)C2)C[C@H]1NS(C)(=O)=O` (single isomer, unassigned) [Example 155, N-{(3R,4S)-4-fluoro-4-methyl-1-[5-(2′,3,6′-trifluoro[1,1′-biphenyl]-2-yl)-4,5-dihydro-1,2-oxazol-3-yl]pyrrolidin-3-yl}methanesulfonamide or N-{(3S,4R)-4-fluoro-4-methyl-1-[5-(2′,3,6′-trifluoro[1,1′-biphenyl]-2-yl)-4,5-dihydro-1,2-oxazol-3-yl]pyrrolidin-3-yl)methanesulfonamide], the “OX2R agonist activity (3 μM, %)” value is reported as 99%.
With `CS(=O)(=O)N[C@@H]1CN(C2=NOC(CO)(c3ncc(C(F)F)cc3-c3c(F)cccc3F)C2)CC1(F)F` (stereo partly drawn) [Example 135, N-[(3R)-1-{5-[5-(difluoromethyl)-3-(2,6-difluorophenyl)pyridin-2-yl]-5-(hydroxymethyl)-4,5-dihydro-1,2-oxazol-3-yl}-4,4-difluoropyrrolidin-3-yl]methanesulfonamide] the “OX2R agonist activity (3 μM, %)” value was 115%.
`CCS(=O)(=O)N[C@@H]1CN(C2=NO[C@H](c3ncc(Br)cc3-c3c(F)cc(F)cc3F)C2)CC1(F)F` [Example 43, N-[(3R)-1-{5-[5-bromo-3-(2,4,6-trifluorophenyl)pyridin-2-yl]-4,5-dihydro-1,2-oxazol-3-yl}-4,4-difluoropyrrolidin-3-yl]ethanesulfonamide] was tested, and the “OX2R agonist activity (3 μM, %)” value was 103%.
`O=S(=O)(CF)N[C@H]1CCN(C2=NOC(c3ncc(Cl)cc3-c3c(F)cccc3F)C2)C1` (stereo partly drawn) [Example 101, N-[(3S)-1-{5-[5-chloro-3-(2,6-difluorophenyl)pyridin-2-yl]-4,5-dihydro-1,2-oxazol-3-yl}pyrrolidin-3-yl]-1-fluoromethanesulfonamide] was tested, and the “OX2R agonist activity (3 μM, %)” value was 98%.
With `CS(=O)(=O)N[C@@H]1CN(C2=NOC(c3c(F)cc(F)cc3-c3ncc(F)cc3F)C2)CC1(F)F` (stereo partly drawn) [Example 138, N-[(3R)-1-{5-[2-(3,5-difluoropyridin-2-yl)-4,6-difluorophenyl]-4,5-dihydro-1,2-oxazol-3-yl}-4,4-difluoropyrrolidin-3-yl]methanesulfonamide] the “OX2R agonist activity (3 μM, %)” value was 105%.
With `O=S(=O)(CF)N[C@@H]1CN(C2=NOC(c3c(F)cc(F)c(F)c3-c3c(F)cccc3F)C2)CC1(F)F` (stereo partly drawn) [Example 174, N-{(3R)-4,4-difluoro-1-[5-(2′,3,5,6,6′-pentafluoro[1,1′-biphenyl]-2-yl)-4,5-dihydro-1,2-oxazol-3-yl]pyrrolidin-3-yl}-1-fluoromethanesulfonamide] the “OX2R agonist activity (3 μM, %)” value was 107%.
For `Cc1cnc([C@@H]2CC(N3C[C@@H](F)[C@H](NS(=O)(=O)N(C)C)C3)=NO2)c(-c2c(F)cccc2F)c1` [Example 78, N′-[(3R,4R)-1-{(5S)-5-[3-(2,6-difluorophenyl)-5-methylpyridin-2-yl]-4,5-dihydro-1,2-oxazol-3-yl}-4-fluoropyrrolidin-3-yl]-N,N-dimethylsulfuric diamide], the “OX2R agonist activity (3 μM, %)” value was 102%.
With `CS(=O)(=O)N[C@H]1CCCN(C2=NOC(c3ccccc3-c3c(F)cccc3F)C2)CC1` (stereo partly drawn) [Example 5, N-{(4S)-1-[5-(2′,6′-difluoro[1,1′-biphenyl]-2-yl)-4,5-dihydro-1,2-oxazol-3-yl]azepan-4-yl}methanesulfonamide] the “OX2R agonist activity (3 μM, %)” value was 106%.
In the case of `Cc1cnc(C2CC(N3C[C@@H](NS(C)(=O)=O)C(F)(F)C3)=NO2)c(-c2c(F)cccc2Cl)c1` (stereo partly drawn) [Example 61, N-[(3R)-1-{5-[3-(2-chloro-6-fluorophenyl)-5-methylpyridin-2-yl]-4,5-dihydro-1,2-oxazol-3-yl}-4,4-difluoropyrrolidin-3-yl]methanesulfonamide], the “OX2R agonist activity (3 μM, %)” value is reported as 98%.
For `Cc1cnc([C@@H]2CC(N3CC[C@H](NS(=O)(=O)CF)C3)=NO2)c(-c2c(F)cccc2F)c1` [Example 38, N-[(3S)-1-{(5S)-5-[3-(2,6-difluorophenyl)-5-methylpyridin-2-yl]-4,5-dihydro-1,2-oxazol-3-yl}pyrrolidin-3-yl]-1-fluoromethanesulfonamide], the “OX2R agonist activity (3 μM, %)” value was 104%.
